# Tested on: hemoglobin-haptoglobin complex
# Assay: Stability of hemoglobin (as hemoglobin-haptoglobin complex) in samples preserved at 37° C. in preservation solution containing 1 unit/L haptoglobin, Hb measured by latex agglutination method (Examples 1 to 7)
# Design: species or system human
# Conditions: for Hb concentration / Recovery ratio with respect to Hb concentration after 0 days: 37° C.
# Method in brief: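 Hemoglobin (~300 µg/L) in 0.5% fecal suspension, or without feces, held at 37 °C for 0–21 days in 40 mmol/L HEPES pH 6.8, 0.1% BSA, 0.1% NaN3, 1 unit/L haptoglobin, with 0–100 mmol/L phenylboronic acid ± sugars. Hb quantified by latex agglutination with anti-human Hb rabbit polyclonal; recovery (%) relative to day 0.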
# [1] = Feces 1, sugar 50 mmol/L + phenylboronic acid 15 mmol/L, 0 days
# [2] = Feces 1, sugar 50 mmol/L + phenylboronic acid 15 mmol/L, 7 days
# [3] = Feces 1, sugar 50 mmol/L + phenylboronic acid 15 mmol/L, 14 days
# [4] = Feces 1, sugar 50 mmol/L + phenylboronic acid 15 mmol/L, 21 days
# [5] = Feces 1, sugar 100 mmol/L + phenylboronic acid 15 mmol/L, 0 days
# [6] = Feces 1, sugar 100 mmol/L + phenylboronic acid 15 mmol/L, 7 days
# [7] = Feces 1, sugar 100 mmol/L + phenylboronic acid 15 mmol/L, 14 days
# [8] = Feces 1, sugar 100 mmol/L + phenylboronic acid 15 mmol/L, 21 days
# [9] = Feces 1, sugar 100 mmol/L, no phenylboronic acid, 0 days
# [10] = Feces 1, sugar 100 mmol/L, no phenylboronic acid, 7 days
# [11] = Feces 1, sugar 100 mmol/L, no phenylboronic acid, 14 days
# [12] = Feces 1, sugar 100 mmol/L, no phenylboronic acid, 21 days
# [13] = Feces 2, sugar 50 mmol/L + phenylboronic acid 15 mmol/L, 0 days
# [14] = Feces 2, sugar 50 mmol/L + phenylboronic acid 15 mmol/L, 7 days
# [15] = Feces 2, sugar 50 mmol/L + phenylboronic acid 15 mmol/L, 14 days
# [16] = Feces 2, sugar 50 mmol/L + phenylboronic acid 15 mmol/L, 21 days
# [17] = Feces 2, sugar 100 mmol/L + phenylboronic acid 15 mmol/L, 0 days
# [18] = Feces 2, sugar 100 mmol/L + phenylboronic acid 15 mmol/L, 14 days
# [19] = Feces 2, sugar 100 mmol/L + phenylboronic acid 15 mmol/L, 21 days
# [20] = Feces 2, sugar 100 mmol/L, no phenylboronic acid, 0 days
# [21] = Feces 2, sugar 100 mmol/L, no phenylboronic acid, 7 days
# [22] = Feces 2, sugar 100 mmol/L, no phenylboronic acid, 14 days
# [23] = Feces 2, sugar 100 mmol/L, no phenylboronic acid, 21 days
# [24] = Feces 3, sugar 50 mmol/L + phenylboronic acid 15 mmol/L, 0 days
# [25] = Feces 3, sugar 50 mmol/L + phenylboronic acid 15 mmol/L, 7 days
# [26] = Feces 3, sugar 50 mmol/L + phenylboronic acid 15 mmol/L, 14 days
# [27] = Feces 3, sugar 50 mmol/L + phenylboronic acid 15 mmol/L, 21 days
# [28] = Feces 3, sugar 100 mmol/L + phenylboronic acid 15 mmol/L, 0 days
# [29] = Feces 3, sugar 100 mmol/L + phenylboronic acid 15 mmol/L, 7 days
# [30] = Feces 3, sugar 100 mmol/L + phenylboronic acid 15 mmol/L, 14 days
# [31] = Feces 3, sugar 100 mmol/L + phenylboronic acid 15 mmol/L, 21 days
# [32] = Feces 3, sugar 100 mmol/L, no phenylboronic acid, 0 days
# [33] = Feces 3, sugar 100 mmol/L, no phenylboronic acid, 7 days
# [34] = Feces 3, sugar 100 mmol/L, no phenylboronic acid, 14 days
# [35] = Feces 3, sugar 100 mmol/L, no phenylboronic acid, 21 days
# [36] = No feces, sugar 50 mmol/L + phenylboronic acid 15 mmol/L, 7 days
# [37] = No feces, sugar 50 mmol/L + phenylboronic acid 15 mmol/L, 14 days
# [38] = No feces, sugar 100 mmol/L + phenylboronic acid 15 mmol/L, 0 days
# [39] = No feces, sugar 100 mmol/L + phenylboronic acid 15 mmol/L, 7 days
# [40] = No feces, sugar 100 mmol/L + phenylboronic acid 15 mmol/L, 14 days
# [41] = No feces, sugar 100 mmol/L + phenylboronic acid 15 mmol/L, 21 days
# [42] = No feces, sugar 100 mmol/L, no phenylboronic acid, 7 days
# [43] = No feces, sugar 100 mmol/L, no phenylboronic acid, 14 days
# [44] = No feces, sugar 100 mmol/L, no phenylboronic acid, 21 days
smiles,measurement,setting,value
"OC[C@H]1O[C@@](CO)(O[C@H]2O[C@H](CO)[C@@H](O)[C@H](O)[C@H]2O)[C@@H](O)[C@@H]1O [Sucrose, sucrose]",Hb concentration,[1],291 µg/L
same,Recovery ratio with respect to Hb concentration after 0 days,[1],100%
same,Hb concentration,[2],281 µg/L
same,Recovery ratio with respect to Hb concentration after 0 days,[2],97%
same,Hb concentration,[3],274 µg/L
same,Recovery ratio with respect to Hb concentration after 0 days,[3],94%
same,Hb concentration,[4],268 µg/L
same,Recovery ratio with respect to Hb concentration after 0 days,[4],92%
same,Hb concentration,[5],286 µg/L
same,Recovery ratio with respect to Hb concentration after 0 days,[5],100%
same,Hb concentration,[6],272 µg/L
same,Recovery ratio with respect to Hb concentration after 0 days,[6],95%
same,Hb concentration,[7],270 µg/L
same,Recovery ratio with respect to Hb concentration after 0 days,[7],94%
same,Hb concentration,[8],258 µg/L
same,Recovery ratio with respect to Hb concentration after 0 days,[8],90%
same,Hb concentration,[9],264 µg/L
same,Recovery ratio with respect to Hb concentration after 0 days,[9],100%
same,Hb concentration,[10],115 µg/L
same,Recovery ratio with respect to Hb concentration after 0 days,[10],44%
same,Hb concentration,[11],70 µg/L
same,Recovery ratio with respect to Hb concentration after 0 days,[11],27%
same,Hb concentration,[12],80 µg/L
same,Recovery ratio with respect to Hb concentration after 0 days,[12],30%
same,Hb concentration,[13],273 µg/L
same,Recovery ratio with respect to Hb concentration after 0 days,[13],100%
same,Hb concentration,[14],266 µg/L
same,Recovery ratio with respect to Hb concentration after 0 days,[14],97%
same,Hb concentration,[15],232 µg/L
same,Recovery ratio with respect to Hb concentration after 0 days,[15],85%
same,Hb concentration,[16],212 µg/L
same,Recovery ratio with respect to Hb concentration after 0 days,[16],78%
same,Hb concentration,[17],267 µg/L
same,Recovery ratio with respect to Hb concentration after 0 days,[17],100%
same,Recovery ratio with respect to Hb concentration after 0 days,"Feces 2, sugar 100 mmol/L + phenylboronic acid 15 mmol/L, 7 days",96%
same,Hb concentration,[18],236 µg/L
same,Recovery ratio with respect to Hb concentration after 0 days,[18],88%
same,Hb concentration,[19],219 µg/L
same,Recovery ratio with respect to Hb concentration after 0 days,[19],82%
same,Hb concentration,[20],270 µg/L
same,Recovery ratio with respect to Hb concentration after 0 days,[20],100%
same,Hb concentration,[21],96 µg/L
same,Recovery ratio with respect to Hb concentration after 0 days,[21],36%
same,Hb concentration,[22],49 µg/L
same,Recovery ratio with respect to Hb concentration after 0 days,[22],18%
same,Hb concentration,[23],31 µg/L
same,Recovery ratio with respect to Hb concentration after 0 days,[23],11%
same,Hb concentration,[24],286 µg/L
same,Recovery ratio with respect to Hb concentration after 0 days,[24],100%
same,Hb concentration,[25],234 µg/L
same,Recovery ratio with respect to Hb concentration after 0 days,[25],82%
same,Hb concentration,[26],209 µg/L
same,Recovery ratio with respect to Hb concentration after 0 days,[26],73%
same,Hb concentration,[27],195 µg/L
same,Recovery ratio with respect to Hb concentration after 0 days,[27],68%
same,Hb concentration,[28],272 µg/L
same,Recovery ratio with respect to Hb concentration after 0 days,[28],100%
same,Hb concentration,[29],230 µg/L
same,Recovery ratio with respect to Hb concentration after 0 days,[29],85%
same,Hb concentration,[30],201 µg/L
same,Recovery ratio with respect to Hb concentration after 0 days,[30],74%
same,Hb concentration,[31],187 µg/L
same,Recovery ratio with respect to Hb concentration after 0 days,[31],69%
same,Hb concentration,[32],267 µg/L
same,Recovery ratio with respect to Hb concentration after 0 days,[32],100%
same,Hb concentration,[33],89 µg/L
same,Recovery ratio with respect to Hb concentration after 0 days,[33],33%
same,Hb concentration,[34],55 µg/L
same,Recovery ratio with respect to Hb concentration after 0 days,[34],21%
same,Hb concentration,[35],40 µg/L
same,Recovery ratio with respect to Hb concentration after 0 days,[35],15%
same,Recovery ratio with respect to Hb concentration after 0 days,"No feces, sugar 50 mmol/L + phenylboronic acid 15 mmol/L, 0 days",100%
same,Hb concentration,[36],253 µg/L
same,Recovery ratio with respect to Hb concentration after 0 days,[36],93%
same,Hb concentration,[37],246 µg/L
same,Recovery ratio with respect to Hb concentration after 0 days,[37],91%
same,Recovery ratio with respect to Hb concentration after 0 days,"No feces, sugar 50 mmol/L + phenylboronic acid 15 mmol/L, 21 days",95%
same,Hb concentration,[38],267 µg/L
same,Recovery ratio with respect to Hb concentration after 0 days,[38],100%
same,Hb concentration,[39],247 µg/L
same,Recovery ratio with respect to Hb concentration after 0 days,[39],93%
same,Hb concentration,[40],241 µg/L
same,Recovery ratio with respect to Hb concentration after 0 days,[40],90%
same,Hb concentration,[41],260 µg/L
same,Recovery ratio with respect to Hb concentration after 0 days,[41],97%
same,Recovery ratio with respect to Hb concentration after 0 days,"No feces, sugar 100 mmol/L, no phenylboronic acid, 0 days",100%
same,Hb concentration,[42],228 µg/L
same,Recovery ratio with respect to Hb concentration after 0 days,[42],93%
same,Hb concentration,[43],223 µg/L
same,Recovery ratio with respect to Hb concentration after 0 days,[43],91%
same,Hb concentration,[44],222 µg/L
same,Recovery ratio with respect to Hb concentration after 0 days,[44],91%
same,recovery ratio of hemoglobin in the sample,"sugar 100 mmol/L further added to other arylboronic acids (3-CPBA, 3-HPBA, 3-APBA) 15 mmol/L, Feces 1, Feces 2, Feces 3",further improved
same,recovery ratio of hemoglobin in the samples containing fecal specimens,"sugar 100 mmol/L, preservation solutions containing no phenylboronic acid",does not improve
same,recovery ratio of hemoglobin in the sample,"sugar 50 or 100 mmol/L further added to phenylboronic acid 15 mmol/L, Feces 1, Feces 2, Feces 3",further improved
same,recovery ratio of hemoglobin in the samples containing feces,"sugar added to phenylboronic acid 15 mmol/L, Feces 1, Feces 2, Feces 3",improved depending on the added concentration

# Reference: US12215140B2, “Method of stabilizing protein contained in specimen and solution for stabilizing protein contained in specimen” (EIKEN KAGAKU KABUSHIKI KAISHA, priority 2018, dated 2025)
